Assay results published in the NIST ThermoML archive (doi:10.1016/j.jct.2013.05.029).

Experiment: refractive index (other wavelength) (dimensionless); xn = mol fraction of the nth substance listed
Conditions: 101 kPa, Liquid, Wavelength=633 nm, Standard Abbe refractometry

CCCCCCCCCC [decane] + COC(=O)OC
Conditions | refractive index
280.97 K, x2 = 0.517 | 1.4023
280.97 K, x2 = 0.915 | 1.3807
281.95 K, x2 = 0.537 | 1.4011
281.95 K, x2 = 0.913 | 1.3805
283 K, x2 = 0.549 | 1.4002
283 K, x2 = 0.903 | 1.3808
284.42 K, x2 = 0.581 | 1.3983
284.42 K, x2 = 0.89 | 1.3811
285.51 K, x2 = 0.615 | 1.3964
285.51 K, x2 = 0.876 | 1.3817
286.06 K, x2 = 0.63 | 1.3954
286.06 K, x2 = 0.867 | 1.382
286.31 K, x2 = 0.641 | 1.3948
286.31 K, x2 = 0.859 | 1.3825
286.44 K, x2 = 0.65 | 1.3943
286.44 K, x2 = 0.855 | 1.3827
286.64 K, x2 = 0.663 | 1.3936
286.64 K, x2 = 0.849 | 1.383
286.84 K, x2 = 0.671 | 1.3932
286.84 K, x2 = 0.842 | 1.3834
286.94 K, x2 = 0.677 | 1.3928
286.94 K, x2 = 0.837 | 1.3837
287.03 K, x2 = 0.689 | 1.3922
287.03 K, x2 = 0.831 | 1.3841
287.13 K, x2 = 0.692 | 1.392
287.13 K, x2 = 0.827 | 1.3843
287.21 K, x2 = 0.703 | 1.3914
287.21 K, x2 = 0.708 | 1.3911
287.21 K, x2 = 0.819 | 1.3847
287.21 K, x2 = 0.824 | 1.3844
287.23 K, x2 = 0.705 | 1.3913
287.23 K, x2 = 0.712 | 1.3909
287.23 K, x2 = 0.815 | 1.385
287.23 K, x2 = 0.82 | 1.3847
287.26 K, x2 = 0.716 | 1.3907
287.26 K, x2 = 0.817 | 1.3849
287.27 K, x2 = 0.712 | 1.3909
287.27 K, x2 = 0.813 | 1.3851
287.28 K, x2 = 0.716 | 1.3907
287.28 K, x2 = 0.817 | 1.3849
287.29 K, x2 = 0.716 | 1.3907
287.29 K, x2 = 0.809 | 1.3853
287.31 K, x2 = 0.72 | 1.3905
287.31 K, x2 = 0.814 | 1.385
287.32 K, x2 = 0.72 | 1.3905
287.32 K, x2 = 0.723 | 1.3903
287.32 K, x2 = 0.729 | 1.39
287.32 K, x2 = 0.804 | 1.3857
287.32 K, x2 = 0.806 | 1.3855
287.32 K, x2 = 0.809 | 1.3853
287.35 K, x2 = 0.725 | 1.3902
287.35 K, x2 = 0.731 | 1.3899
287.35 K, x2 = 0.735 | 1.3896
287.35 K, x2 = 0.741 | 1.3893
287.35 K, x2 = 0.796 | 1.3861
287.35 K, x2 = 0.799 | 1.3859
287.35 K, x2 = 0.803 | 1.3857
287.35 K, x2 = 0.809 | 1.3853
287.36 K, x2 = 0.737 | 1.3895
287.36 K, x2 = 0.798 | 1.386
287.37 K, x2 = 0.737 | 1.3895
287.37 K, x2 = 0.741 | 1.3893
287.37 K, x2 = 0.79 | 1.3865
287.37 K, x2 = 0.796 | 1.3861
